Where two headings read alike, the source gives them in different places.
Tests used:
[1] = test system: A. galli (intestinal roundworm of chicken) larval stage 3; O. dentatum (nodular worm of swine) larval stages 3 and 4; experiment: Activity against Ascaridia galli and Oesophagostomum dentatum larvae in vitro (minimum effective concentration); assay type: cell-based
Haemonchus contortus = experiment: Efficacy against Haemonchus contortus in jirds; assay type: in vivo, jirds (Meriones unguiculatus); details: 72 h, read-out: % Reduction in H.; for inhibition in vivo at 10 mg/kg: jirds, single treatment, larvae burden in stomach 3 days after treatment
Method: Anthelmintic effects of compounds of this invention were tested in vivo using Haemonchus contuortus in jirds (Meriones unguiculatus). The jirds were orally infected with approximately 750-3,000 third-stage larvae of Haemonchus contortus. Ten days after infection, the jirds in the treatment groups were treated once orally or subcutaneously at a dose of 2, 10, and/or 50 mg per kg bodyweight. Three days after treatment, the jirds were necropsied, and the larvae burden in the stomach is determined. The efficacy is defined as the reduction of the mean larvae count in the jirds of the treatment groups in comparison to the infected jirds in the untreated negative control group.

[2] = read-out: MEC (minimum effective concentration) against one or more of the tested nematodes, in vitro, one or more of A. galli L3, O. dentatum L3, L4, threshold 1 μM
[3] = read-out: MEC (minimum effective concentration) against one or more of the tested nematodes, in vitro, one or more of A. galli L3, O. dentatum L3, L4, threshold 7 μM
[4] = read-out: MEC (minimum effective concentration) against two or more of the tested nematodes, in vitro, two or more of A. galli L3, O. dentatum L3, L4, threshold 1 μM

SMILES	minimal effective concentration [1, 2]	minimal effective concentration [1, 3]	minimal effective concentration [1, 4]	inhibition in vivo at 50 mg/kg (Haemonchus contortus; po)	inhibition in vivo at 50 mg/kg (Haemonchus contortus; sc)	minimal effective concentration ([1]; in vitro, one or more of A. galli L3, O. dentatum L3, L4, threshold 1 μM, read-out: MEC (minimum effective concentration) against one or more of the tested nematodes)	minimal effective concentration ([1]; in vitro, one or more of A. galli L3, O. dentatum L3, L4, threshold 7 μM, read-out: MEC (minimum effective concentration) against one or more of the tested nematodes)	minimal effective concentration ([1]; in vitro, two or more of A. galli L3, O. dentatum L3, L4, threshold 1 μM, read-out: MEC (minimum effective concentration) against two or more of the tested nematodes)	inhibition in vivo at 10 mg/kg (Haemonchus contortus; oral)	inhibition in vivo at 10 mg/kg (Haemonchus contortus; sc, subcutaneous)
CSc1ccc(NC2CCN(C(=O)CCCN3CCN(c4ccc(C(F)(F)F)cc4)CC3)CC2)cc1C(F)(F)F [Example 5, 1-[4-(4-methylsulfanyl-3-trifluoromethyl-phenylamino)-piperidin-1-yl]-4-[4-(4-trifluoromethyl-phenyl)-piperazin-1-yl]-butan-1-one]	< 1 µM	< 7 µM	< 1 µM	87%	99%					
N#Cc1cccc(NC2CCN(C(=O)CCCN3CCN(c4ccc(C(F)(F)F)cc4)CC3)CC2)c1 [Example 7, 3-(1-{4-[4-(4-trifluoromethyl-phenyl)-piperazin-1-yl]-butyryl}-piperidin-4-ylamino)-benzonitrile]	< 1 µM	< 7 µM	< 1 µM	99%	98%					
O=C(COC1CCN(c2ccc(C(F)(F)F)cc2)CC1)N1CCC(Nc2ccc([N+](=O)[O-])c(C(F)(F)F)c2)CC1 [Example 12, 1-[4-(4-nitro-3-trifluoromethyl-phenylamino)-piperidin-1-yl]-2-[1-(4-trifluoromethyl-phenyl)-piperidin-4-yloxy]-ethanone]	< 1 µM	< 7 µM	< 1 µM	96%	100%					
O=C(CCN1CCC(c2ccc(C(F)(F)F)cc2)CC1)N1CCC(Nc2ccc([N+](=O)[O-])c(C(F)(F)F)c2)CC1 [Example 14, 1-[4-(4-nitro-3-trifluoromethyl-phenylamino)-piperidin-1-yl]-3-[4-(4-trifluoromethyl-phenyl)-piperidin-1-yl]-propan-1-one]	< 1 µM	< 7 µM	< 1 µM	87%	99%					
O=C(CCCN1CCN(c2ccc(C(F)(F)F)cc2)CC1)N1CCC(Nc2ccc(Cl)c(SC(F)(F)F)c2)CC1 [Example 17, 1-[4-(4-chloro-3-trifluoromethylsulfanyl-phenylamino)-piperidin-1-yl]-4-[4-(4-trifluoromethyl-phenyl)-piperazin-1-yl]-butan-1-one]	< 1 µM	< 7 µM	< 1 µM	100%	96%					
Cn1nnc(-c2ccc(NC3CCN(C(=O)CCCN4CCN(c5ccc(C(F)(F)F)cc5)CC4)CC3)cc2)n1 [Example 21, 1-{4-[4-(2-methyl-1H-tetrazol-5-yl)-phenylamino]-piperidin-1-yl}-4-[4-(4-trifluoromethyl-phenyl)-piperazin-1-yl]-butan-1-one]	< 1 µM	< 7 µM	< 1 µM	95%	38%					
O=C(CCN1CCN(c2ccc(OCc3ccccc3)cc2)CC1)N1CCC(Nc2ccc([N+](=O)[O-])c(C(F)(F)F)c2)CC1 [Example 23, 3-[4-(4-benzyloxy-phenyl)-piperazin-1-yl]-1-[4-(4-nitro-3-trifluoromethyl-phenylamino)-piperidin-1-yl]-propan-1-one]	< 1 µM	< 7 µM	< 1 µM	66%	92%					
CC(C)COc1ccc(N2CCN(CCC(=O)N3CCC(Nc4ccc([N+](=O)[O-])c(C(F)(F)F)c4)CC3)CC2)cc1 [Example 26, 3-[4-(4-isobutoxy-phenyl)-piperazin-1-yl]-1-[4-(4-nitro-3-trifluoromethyl-phenylamino)-piperidin-1-yl]-propan-1-one]	< 1 µM	< 7 µM	< 1 µM	64%	91%					
CS(=O)(=O)c1ccc(NC2CCN(C(=O)CCCN3CCN(c4ccc(C(F)(F)F)cc4)CC3)CC2)cc1C(F)(F)F [Example 30, 1-[4-(4-methanesulfonyl-3-trifluoromethyl-phenylamino)-piperidin-1-yl]-4-[4-(4-trifluoromethyl-phenyl)-piperazin-1-yl]-butan-1-one]	< 1 µM	< 7 µM	< 1 µM	62%	69%					
O=C(CCCN1CCN(c2ccc(C(F)(F)F)cc2)CC1)N1CCC(Nc2ccc(S(=O)(=O)c3ccc(F)cc3)cc2)CC1 [Example 33, 1-{4-[4-(4-fluoro-benzenesulfonyl)-phenylamino]-piperidin-1-yl}-4-[4-(4-trifluoromethyl-phenyl)-piperazin-1-yl]-butan-1-one]	< 1 µM	< 7 µM	< 1 µM	55%	69%					
CC(C)(C)c1ccc(N2CCN(CCC(=O)N3CCC(Nc4ccc([N+](=O)[O-])c(C(F)(F)F)c4)CC3)CC2)cc1 [Example 35, 3-[4-(4-tert-butyl-phenyl)-piperazin-1-yl]-1-[4-(4-nitro-3-trifluoromethyl-phenylamino)-piperidin-1-yl]-propan-1-one]	< 1 µM	< 7 µM	< 1 µM	45%	93%					
COc1cc(NC2CCN(C(=O)CCN3CCN(c4ccc(OCc5ccc(C(F)(F)F)cc5)cc4)CC3)CC2)ccc1[N+](=O)[O-] [Example 40, 1-[4-(3-methoxy-4-nitro-phenylamino)-piperidin-1-yl]-3-{4-[4-(4-trifluoromethyl-benzyloxy)-phenyl]-piperazin-1-yl}-propan-1-one]	< 1 µM	< 7 µM	< 1 µM	0%	74%					
O=C(CCCN1CCN(c2ccc(C(F)(F)F)cc2)CC1)N1CCC(Nc2ccc(C(F)(F)F)cn2)CC1 [Example 51, 4-[4-(4-trifluoromethyl-phenyl)-piperazin-1-yl]-1-[4-(5-trifluoromethyl-pyridin-2-ylamino)-piperidin-1-yl]-butan-1-one]	< 1 µM	< 7 µM	< 1 µM	86%	63%					
O=C(CCCN1CCN(c2ccc(C(F)(F)F)cc2)CC1)N1CCC(Nc2ccc(OC(F)(F)F)cc2)CC1 [Example 54, 1-[4-(4-trifluoromethoxy-phenylamino)-piperidin-1-yl]-4-[4-(4-trifluoromethyl-phenyl)-piperazin-1-yl]-butan-1-one]	< 1 µM	< 7 µM	< 1 µM	95%	58%					
O=C(CCN1CCC(OCc2ccc(C(F)(F)F)cc2)CC1)N1CCC(Nc2ccc([N+](=O)[O-])c(C(F)(F)F)c2)CC1 [Example 57, 1-[4-(4-nitro-3-trifluoromethyl-phenylamino)-piperidin-1-yl]-3-[4-(4-trifluoromethyl-benzyloxy)-piperidin-1-yl]-propan-1-one]	< 1 µM	< 7 µM	< 1 µM	85%	84%					
CC(CN1CCN(c2ccc(Cl)cc2)CC1)C(=O)N1CCC(Nc2ccc([N+](=O)[O-])c(C(F)(F)F)c2)CC1 (stereo not shown) [Example 61, 3-[4-(4-chloro-phenyl)-piperazin-1-yl]-2-methyl-1-[4-(4-nitro-3-trifluoromethyl-phenylamino)-piperidin-1-yl]-propan-1-one]	< 1 µM	< 7 µM	< 1 µM	100%	100%					
C[C@@H](CN1CCN(c2ccc(C(F)(F)F)cc2)CC1)C(=O)N1CCC(Nc2ccc([N+](=O)[O-])c(C(F)(F)F)c2)CC1 [Example 68, (S)-2-methyl-1-[4-(4-nitro-3-trifluoromethyl-phenylamino)-piperidin-1-yl]-3-[4-(4-trifluoromethyl-phenyl)-piperazin-1-yl]-propan-1-one]						< 1 µM	< 7 µM	< 1 µM	99%	99%
